Reference: a melting point compilation (Tetko et al.; mined from patent text by program, amines drawn as free bases though some values may be those of a salt)

melting point	SMILES
95 to 113 °C	CCCNC(=O)C(C)Cc1ccc2c(c1)c(Cc1ccc(C(=O)NS(=O)(=O)c3ccccc3C)cc1OC)cn2CCC (configuration not stated)
> 300 °C	Cc1ccc(-c2nc(-c3ccncc3)cs2)c(=O)[nH]1
254 to 256 °C	COc1cc2cc(C3=NNC(=O)CC3)sc2cc1OC
65 °C	CCCCC1CCC(c2ccc(C(=O)CC(=O)C(F)(F)F)cc2)CC1 (configuration not stated)
102 to 106 °C	COC(=O)[C@]1(C)CCc2c(C)c(OCc3ccccc3)c(C)c(C)c2O1
218 to 221 °C	O=C(O)Cc1ccc(C(=O)O)cc1Sc1ccc(F)cc1
130 to 131 °C	O=[N+]([O-])c1ccc(NCCO)nc1NCCO
125 to 130 °C	Cn1cc(C2=C(c3c4n(c5ccccc35)CCC4)C(=O)OC2=O)c2ccccc21
99 to 101 °C	CCCCOc1cc2c(c3c1OC(C)(C)C3)C(c1ccccc1)=NC(C)(C)C2
74 to 76 °C	CC(C)c1cc(C(C)C)c2sc3ccccc3c(=O)c2c1
179 to 181 °C	CNS(=O)(=O)c1ccc(-c2ccc3oc(C4CCN(C(=O)OC(C)C)CC4)nc3c2)cc1
198 to 200 °C	Cn1c([N+](=O)[O-])cnc1-c1nnc2ccc(N=CNC3CCCCC3)nn12
233 to 235 °C	COc1ccc(-c2c(Cl)c(Cn3cnc4ccccc43)nc3sc4c(c23)CCS(=O)C4)cc1 (configuration not stated)
44 to 45 °C	CCOC(=O)C(=O)OCc1ccc(OC)cc1
152 to 154 °C	CC=NNC1=NCCc2ccccc21
91.8 to 92.3 °C	COC(=O)c1cccc(OS(=O)(=O)C(F)(F)F)c1O
109 to 110 °C	COC(=O)C(C#N)c1ncc(Cl)cc1Cl (configuration not stated)
199 to 200 °C	C[C@@H]1NC(=O)O[C@H]1c1ccc(C(C)(C)C)cc1
206 °C	O=C1CCC(=NNc2ccccc2)c2ncccc2N1
121 to 123 °C	Cc1cn(Nc2ccncn2)c2ccccc12
202 to 203 °C	N#CNC=Nc1ccc(-c2ncc[nH]2)cc1
69 to 71 °C	COc1ccc(F)cc1C(C)(C)CC(O)(CN1CC(=O)Nc2ccccc21)C(F)(F)F (configuration not stated)
168 to 170 °C	COc1ccccc1CN1CCN(C)CC1C1=NCCN1 (configuration not stated)

melting point	SMILES
167 to 170 °C	COCn1c(-c2nc3c(OC)ccc(N4CCOCC4)c3s2)nc2ccc(Cl)nc21
160 °C	Clc1nc2ccnn2c2ncccc12
81 to 82 °C	CCCCOCCOc1ccc(-c2ccc(N3CCCC3)c(C(C)=CC(=O)OCC)c2)cc1
108 to 110 °C	COCCN1CC(=O)C(C#N)=C1C#N
73 to 75 °C	COc1cc2cc[nH]c2cc1OCCCCl
228 to 230 °C	CN1C(=O)N(c2ccc(Cl)cc2)S(=O)(=O)c2ccc(OCC(=O)O)cc21
160 to 162 °C	CC(=O)Cc1cc2[nH]c(=O)oc2cc1Br
118 to 120 °C	CC(=O)Oc1ccc(P(c2ccccc2)c2ccc(OC(C)=O)cc2)cc1
66 to 68 °C	COCc1ccc(/C=C/c2c(OC)cc3c(c2OC)C(C)(C)CCC3(C)C)cc1
> 300 °C	O=C(O)c1cn(C2CC2)c2nc(-c3cc4c(s3)CCC/C4=N\O)c(F)cc2c1=O
176 to 177 °C	Nc1ccc(C(=O)O)cc1NCc1ccccc1Cl
201 to 203 °C	O=c1c2c([nH]c3ccccc13)C(C1Cc3ccccc3O1)N(c1ncc(-c3ccccn3)cn1)C2 (configuration not stated)
91 to 93 °C	CC(=O)c1cc(C=O)c2occc2c1
240 °C	CO/C(=C\C=C\c1cc2ccccc2s1)C(=O)NC1CC(C)(C)N(C)C(C)(C)C1
158 to 160 °C	O=[N+]([O-])c1ccc(C(O)c2ncco2)c(Cl)c1 (configuration not stated)
226 to 229 °C	CC1=C(c2ccc(O)cc2)C(=O)c2cc(O)c(O)cc21
282 to 283 °C	CCc1cc(Cl)cc2[nH]c(C(=O)O)cc(=O)c12
99 to 100 °C	CCCC(=O)c1cnc2c(OCCCN(C)C)cccc2c1Nc1ccc(F)cc1C
147 to 148 °C	CCc1noc(-c2cn(-c3ccc(OC)cc3)cn2)n1
42 to 46 °C	SCC1SC(CS)SC(CS)S1 (configuration not stated)
108 to 109 °C	CCCc1c(OCCCCCCc2ccc(CCCCC(=O)O)cc2CCC(=O)O)ccc2c1OCCC2=O
50 to 51 °C	NNc1c(Cl)cc(C(F)(F)F)c(F)c1Cl
240 to 242 °C	CCOc1nc(Nc2ccc(F)c(F)c2)nc(NC2CCN(S(=O)(=O)c3ccc(F)cc3)CC2)n1

melting point	SMILES
177 °C	CCOc1ccc(-c2cc3ccccc3[nH]2)cc1OC
119 to 122 °C	CCCCCCCCCCCCCCCC1Cc2ccc(C(=O)O)cc2N1 (racemic)
101 to 102 °C	CCc1cccnc1NC(=O)OC(C)(C)C
103 to 106 °C	COc1ccc(C[C@H](N[C@@H](Cc2ccccc2)C(=O)O)C(=O)NCCc2ocnc2C(=O)O)cc1
171 to 172 °C	Cc1ccc2c(c1)C(=O)C(=O)N2CC(N)=O
137 to 138 °C	CC1=CC(c2ccccc2[N+](=O)[O-])C=C(CN2C(=O)c3ccccc3C2=O)N1 (configuration not stated)
176 to 178 °C	C[C@@H]1OCCN(c2nc(N3CCOCC3)nc(-n3c(C(F)F)nc4ccccc43)n2)[C@@H]1C (relative stereo)
162 to 163 °C	Cc1ccc(N(C=C(C#N)C#N)N=C(C#N)C#N)cc1C
209 °C	N#Cc1cc(-c2c[nH]nc2-c2ccc(F)cc2)ccn1
165 to 172 °C	CON=C(C(=O)OC)c1cc(Cl)nc(NC=O)n1
245 to 247 °C	O=C(Cc1ccc(O)c([N+](=O)[O-])c1)N[C@H]1C[C@H](C(=O)O)Nc2cc(Cl)cc(Cl)c21 (relative stereo)
108 to 110 °C	COC(=O)c1ccc(OCCCN2CCC(C(=O)c3nc4ccccc4s3)CC2)cc1
187 to 190 °C	COc1cc(Nc2nc3cccc(-c4ccc5ncccc5c4)c3o2)cc(OC)c1OC
248 to 250 °C	Nc1c(-c2ccc(-c3ccccc3F)cc2)nc2ccc(F)cc2c1C(=O)O
170 to 172 °C	CCOC(=O)c1cnn2c1nc(Cl)c1cnc3c(cnn3CC)c12
160 to 162 °C	CC(=O)NCc1ccc2c(c1)N(C1CCN(CCc3ccc(F)cc3)CC1)CC2
128 to 130 °C	NC(=O)c1cccc(-c2cc(OC(=O)NC3CCCCC3)ccc2O)c1
209 to 211 °C	Cn1cc(-c2cccc([N+](=O)[O-])c2)c(=O)c(-c2cccc(C(F)(F)F)c2)c1
213 °C	CSCc1sccc1S(=O)(=O)N(C)c1cccc2cc(-c3nccs3)[nH]c12
92 to 94 °C	COC(=O)C(C)N(C(=O)CCl)c1c(C)cccc1C (configuration not stated)
112 to 115 °C	Cc1cc(C)c(Nc2nc(C)ncc2S(=O)(=O)c2cccc(OCc3ccccc3)c2)c(C)c1

SMILES	melting point
CC1(C)CCCN(C(=O)CN2C(=O)C(NC(=O)Nc3cccc(C(=O)OC(C)(C)C)c3)C(=O)N(c3ccccc3F)c3ccccc32)C1 (configuration not stated)	170 °C
COCC(NC(C)=O)C(=O)NCc1ccccc1 (configuration not stated)	142 to 143 °C
Cc1nc2cc(C(=O)NC(C)C)c(NC(=O)c3cc(C(F)(F)F)nn3-c3ncccc3Cl)c(Cl)c2nc1C	243 to 244 °C
Cc1cccc(C2=CCN(CCCn3c(=O)[nH]c4cccc(C)c4c3=O)CC2)n1	200 to 203 °C
Clc1nc(C(Cl)Cl)c(Cl)s1	42 to 44 °C
